Assay results reported in the supplement of paper PMC10307832.

Key:
Carfilzomib + Tozasertib = compound: CC(C)C[C@H](NC(=O)[C@H](CCc1ccccc1)NC(=O)CN1CCOCC1)C(=O)N[C@@H](Cc1ccccc1)C(=O)N[C@@H](CC(C)C)C(=O)[C@@]1(C)CO1 [Carfilzomib] + Cc1cc(Nc2cc(N3CCN(C)CC3)nc(Sc3ccc(NC(=O)C4CC4)cc3)n2)n[nH]1 [Tozasertib] (partner 0.1 µM); test: relative viability (nuclei count vs DMSO), 5 days (fraction); higher = more cells survive
Procedure, shortened: (§1)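 A single step with final 0.05% Triton X-100, 1% formaldehyde and 1 ug/ml Hoechst fixed the cells and stained nuclei 5 days after treatment. Lung cancer cell lines in 1536-well plates had been treated by pin tool the day after seeding with one drug alone or a fixed anchor-drug dose plus five library-drug doses (not always all listed) in √10 steps, and nuclei were counted on 4× images. Relative viability is the ratio of nuclei in treated wells to nuclei in vehicle wells, taken as the median of duplicate plates.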

Crizotinib + Navitoclax = compound: C[C@@H](Oc1cc(-c2cnn(C3CCNCC3)c2)cnc1N)c1c(Cl)ccc(F)c1Cl [Crizotinib] + CC1(C)CCC(c2ccc(Cl)cc2)=C(CN2CCN(c3ccc(C(=O)NS(=O)(=O)c4ccc(N[C@H](CCN5CCOCC5)CSc5ccccc5)c(S(=O)(=O)C(F)(F)F)c4)cc3)CC2)C1 [Navitoclax] (partner 0.5 µM); test: as above
Procedure, shortened: as §1

Cell Line | relative viability (Carfilzomib + Tozasertib; first compound 0.001 µM) | relative viability (Carfilzomib + Tozasertib; first compound 0.003162 µM) | relative viability (Carfilzomib + Tozasertib; first compound 0.01 µM) | relative viability (Carfilzomib + Tozasertib; first compound 0.03162 µM) | relative viability (Carfilzomib + Tozasertib; first compound 0.1 µM) | relative viability (Crizotinib + Navitoclax; first compound 0.01 µM) | relative viability (Crizotinib + Navitoclax; first compound 0.3162 µM) | relative viability (Crizotinib + Navitoclax; first compound 1 µM) | relative viability (Crizotinib + Navitoclax; first compound 0.03162 µM) | relative viability (Crizotinib + Navitoclax; first compound 0.1 µM)
NCI-H522 | 0.491 | 0.6 | 0.653 | 0.349 | 0.346 |  |  |  |  | 
NCI-H596 | 1.16 | 0.878 | 0.721 | 0.222 | 0.168 | 0.845 | 1 | 0.964 |  | 
NCI-H647 | 0.452 | 0.378 | 0.171 | 0.141 | 0.0292 | 1.01 |  | 1.06 | 1.21 | 1.03
NCI-H650 |  | 0.9 | 0.745 | 0.588 | 0.157 |  |  |  |  | 
NCI-H661 | 0.367 | 0.313 | 0.364 | 0.373 | 0.255 |  |  |  |  | 
NCI-H727 | 0.708 | 0.754 | 0.602 | 0.438 | 0.378 | 0.394 | 0.436 | 0.393 | 0.459 | 0.505
NCI-H838 | 0.273 | 0.276 | 0.298 | 0.31 | 0.116 | 1.14 | 1.19 | 1.13 | 1.14 | 1.16
NCI-H1299 |  |  |  |  |  | 1.04 | 1.07 | 1.01 | 1.02 | 1.01
NCI-H1355 | 0.537 | 0.647 | 0.569 | 0.371 | 0.192 | 0.901 | 0.923 | 0.931 | 1.02 | 0.929
NCI-H1395 | 0.746 | 0.743 | 0.696 | 0.505 | 0.304 | 1.12 | 1.21 |  | 0.956 | 1.09
NCI-H1437 | 0.403 | 0.424 | 0.4 | 0.433 | 0.252 | 1.05 | 1.02 | 1.13 | 1.07 | 1.14
NCI-H1623 | 0.404 | 0.443 | 0.515 | 0.434 | 0.294 |  |  |  |  | 
NCI-H1648 |  | 0.556 | 0.495 | 0.37 | 0.248 |  |  |  |  | 
NCI-H1650 | 0.42 | 0.392 | 0.255 | 0.139 | 0.204 | 1.1 | 1.2 | 1.13 | 1.15 | 1.08
NCI-H1651 | 0.626 | 0.805 | 0.559 | 0.126 | 0.0943 | 0.98 | 1.15 | 1.28 | 1.12 | 0.997
NCI-H1666 | 0.667 | 0.551 | 0.58 | 0.523 | 0.312 | 0.93 | 0.876 | 1.06 | 0.81 | 0.857
NCI-H1703 |  |  |  |  |  | 1.03 |  | 1.12 | 0.933 | 
NCI-H1734 | 0.275 | 0.289 | 0.266 | 0.153 | 0.0994 | 0.888 |  |  | 0.81 | 0.844
NCI-H1755 | 0.612 | 0.505 | 0.571 | 0.609 | 0.269 | 0.937 | 0.961 | 0.983 | 1.02 | 0.999

Cell Line | relative viability (Carfilzomib + Tozasertib; first compound 0.001 µM) | relative viability (Carfilzomib + Tozasertib; first compound 0.003162 µM) | relative viability (Carfilzomib + Tozasertib; first compound 0.01 µM) | relative viability (Carfilzomib + Tozasertib; first compound 0.03162 µM) | relative viability (Carfilzomib + Tozasertib; first compound 0.1 µM) | relative viability (Crizotinib + Navitoclax; first compound 0.01 µM) | relative viability (Crizotinib + Navitoclax; first compound 0.3162 µM) | relative viability (Crizotinib + Navitoclax; first compound 1 µM) | relative viability (Crizotinib + Navitoclax; first compound 0.03162 µM) | relative viability (Crizotinib + Navitoclax; first compound 0.1 µM)
NCI-H1792 |  |  |  |  |  | 0.629 | 0.398 | 0.577 | 0.679 | 0.745
NCI-H1915 | 0.422 | 0.458 | 0.465 | 0.229 | 0.0764 | 0.694 |  | 0.801 | 0.782 | 0.818
NCI-H1944 | 0.248 | 0.236 | 0.253 | 0.265 | 0.16 | 1.01 | 1.03 | 1.05 | 0.995 | 1
NCI-H1975 |  | 0.766 | 0.371 | 0.0617 | 0.0846 | 0.965 | 1.26 | 1.06 | 1.06 | 1.03
NCI-H1993 | 0.563 | 0.571 | 0.59 | 0.597 | 0.423 | 0.769 | 0.831 | 0.805 | 0.897 | 0.669
NCI-H2009 | 0.781 | 0.871 | 0.723 | 0.748 | 0.0938 | 1.1 | 1.21 | 1.22 | 1.16 | 1.17
NCI-H2023 | 0.433 | 0.399 | 0.352 | 0.285 | 0.0853 | 0.98 | 0.932 |  | 0.985 | 0.994
NCI-H2085 | 0.825 | 0.828 | 0.786 | 0.269 | 0.385 | 1.02 | 1.07 | 1.2 | 1.09 | 1.03
NCI-H2087 | 0.264 | 0.236 | 0.239 | 0.0397 | 0.0474 | 0.828 | 0.888 | 1.19 | 0.996 | 1.09
NCI-H2126 | 0.904 | 0.926 | 0.936 | 0.777 | 0.408 | 0.834 | 0.759 | 0.832 | 0.826 | 0.842
NCI-H2170 | 0.751 | 0.73 | 0.749 | 0.659 | 0.173 | 0.536 | 0.468 | 0.632 | 0.603 | 0.574
NCI-H2228 | 0.3 | 0.27 | 0.289 | 0.096 | 0.103 | 1.01 | 0.996 | 0.409 | 1.2 | 0.648
NCI-H2342 | 0.495 | 0.473 | 0.579 | 0.543 | 0.385 |  |  |  |  | 
NCI-H2347 | 0.54 |  | 0.619 | 0.493 | 0.151 | 0.682 | 0.799 | 0.852 | 0.734 | 0.849
NCI-H2405 |  | 0.814 | 0.828 | 0.757 | 0.267 | 0.816 | 0.858 | 0.862 | 0.815 | 0.79
NCI-H3122 | 0.371 | 0.428 | 0.418 | 0.38 | 0.132 | 0.99 | 1.02 |  | 0.993 | 1.04
PC-3 [JPC-3] | 0.859 | 0.926 | 0.901 | 0.866 | 0.374 | 0.809 | 0.684 | 0.858 | 0.807 | 0.815
PC-14 | 0.575 | 0.677 | 0.69 | 0.545 | 0.0359 | 0.983 | 1.04 | 0.998 | 0.96 | 0.991
SW 900 | 0.508 | 0.682 | 0.142 | 0.149 | 0.164 |  |  |  |  | 
